Test results: publication PMC10571743, “Molecular Cloning, Tissue Distribution, and Pharmacological Characterization of GPR84 in Grass Carp (Ctenopharyngodon Idella)” (Animals : an Open Access Journal from MDPI, 2023)

What was measured:
mouse GPR84 = test system: mouse GPR84; parameters: method as in PMID 16966319; details: cited from earlier work
ciGPR84 [1] = target: T1, ciGPR84 (Ctenopharyngodon idella, UniProt A0A8K1PH93); experiment: pGL4.29 (CRE) luciferase reporter assay, inhibition of forskolin-induced cAMP signaling in HEK293T cells transfected with ciGPR84; format: cell-based, grass carp (Ctenopharyngodon idella); details: HEK293T co-transfected with pciGPR84 and pGL4.29, 5 μM forskolin, 6 h treatment; for IC50: read-out: IC50 (half-maximal inhibitory concentration) on cAMP through ciGPR84
Procedure: (§1) Human embryonic kidney cells HEK293T obtained from Beyotime Biotechnology (Shanghai, China) were cultured with Dulbecco’s Modified Eagle Medium (DMEM) containing a 10% fetal bovine serum in an incubator (37 °C and 5% CO2 humidified atmosphere). The cells were plated into 24-well plates and cultured for 24 h before assays. The Countess 3 cell counter (Invitrogen, Waltham, MA, USA) was used for cell counting.
(§2) The functionality of ciGPR84 was assessed using our established method. Specifically, the coding sequence (CDS) of ciGPR84 was subcloned into the pcDNA3.1 (+) vector (Invitrogen, Carlsbad, CA, USA), resulting in the construction of pcDNA3.1-ciGPR84 (pciGPR84). HEK293T cells were co-transfected with pciGPR84 (or pcDNA3.1 empty vector), two luciferase reporter vectors (pGL4.29 and pGL4.33) containing a cAMP response element (CRE) and serum response element (SRE), respectively, and pEGFP-N1 (as an internal control for transfection normalization) in a mixture with polyethyleneimine (PEI) transfection reagent (Fusheng Biotechnology, Shanghai, China). The cells were then incubated in the original medium for 24 h, transferred to a 48-well plate, and grown for an additional 24 h to reach a cell density of 2 × 10^5 cells per well. […] It is important to note that due to the anticipated inhibitory effect of MCFA on the intracellular cAMP, 5 μM forskolin was added to all wells transfected with pGL4.29 to pre-activate the cellular adenylyl cyclase.
(§3) After the treatment, cells were lysed with 1 × passive lysis buffer (Beyotime Biotechnology, Shanghai, China), and a luciferase substrate was added to initiate a glow-generating reaction. The luminescence signals were measured using a Tecan F200 (Tecan, Männedorf, Switzerland) microplate reader to determine the relative luciferase activity in each well. Three independent experiments were performed for each agonist concentration (n = 3), and the data were presented as a mean ± SEM.
(§4) A data analysis was performed using GraphPad Prism 7 software (GraphPad Software, San Diego, CA, USA).

ciGPR84 [2] = target: T1, ciGPR84; experiment: pGL4.33 (SRE) luciferase reporter assay, activation of ERK signaling in HEK293T cells transfected with ciGPR84; format: cell-based, grass carp (Ctenopharyngodon idella); details: HEK293T co-transfected with ciGPR84 and pGL4.33 (SRE-luciferase), 6 h treatment; for EC50: read-out: EC50 for activation of ERK signaling through ciGPR84
Procedure: as §1, §2, §3, §4

T1 sequence (A0A8K1PH93 entry or part of it): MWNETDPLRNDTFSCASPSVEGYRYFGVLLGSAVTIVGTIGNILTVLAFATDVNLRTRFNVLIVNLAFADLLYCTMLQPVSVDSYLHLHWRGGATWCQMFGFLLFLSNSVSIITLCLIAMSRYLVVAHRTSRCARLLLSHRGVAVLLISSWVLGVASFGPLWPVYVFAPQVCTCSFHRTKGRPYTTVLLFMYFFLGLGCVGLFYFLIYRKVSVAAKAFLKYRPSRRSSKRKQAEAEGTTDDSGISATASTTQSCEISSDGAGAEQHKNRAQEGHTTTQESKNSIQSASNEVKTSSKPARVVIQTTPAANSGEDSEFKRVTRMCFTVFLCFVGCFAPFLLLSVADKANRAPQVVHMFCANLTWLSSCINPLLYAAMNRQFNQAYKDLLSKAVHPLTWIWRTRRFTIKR

| Compound | EC50 (mouse GPR84) [µM] | IC50 (ciGPR84 [1]) [µM] | EC50 (ciGPR84 [2]) [µM] | inhibition of cAMP generation through ciGPR84 (ciGPR84 [1]; DIM 10^−8 to 10^−3) | activation of ERK signaling through ciGPR84 (ciGPR84 [2]; DIM 10^−8 to 10^−3) |
| --- | --- | --- | --- | --- | --- |
| CCCCCCCCCCCC(=O)O [lauric acid] | 9 | 301 | 4250 |  |  |
| CCCCCCCCCCC(=O)O [undecanoic acid] |  | 1490 | 13800 |  |  |
| c1ccc2c(Cc3c[nH]c4ccccc34)c[nH]c2c1 [DIM, diindolylmethane] |  |  |  | did not lead to the inhibition of cAMP generation | did not activate the ERK signaling |
| CCCCCCCCCC(=O)O [capric acid] | 4 |  |  |  |  |
| CCCCCCCCC(=O)O [nonanoic acid] | 52 |  |  |  |  |
